Results on 28 molecules are retold here after patent publication US20080207694A1, “Hydroxamates as Histone Deacetylase Inhibitors and Pharmaceutical Formulations Containing Them” (priority 2005, published 2008).

The subject of assay [1] is histone deacetylase (HDAC), nuclear extract of Hela cells. The experiment in a line: Deacetylase activity on nuclear extract of HeLa cells (Fluor de Lys kit). In kind it is biochemical, human. To be noted: percent inhibition relative to control without inhibitor, compound at 0.1 μM. How it is done:
(§1) The activity of the compounds as histone deacetylase (HDAC) inhibitors was measured using an in vitro acetylation assay. The compounds were then evaluated as inhibitors of proliferation of human tumor cell cultures.
Deacetylase Activity on Nuclear Extract of Hela Cells (Human Cervical Cancer Cell)
The assay (Fluor de Lys™ kit, BioMol) is divided into two steps: in the first step the substrate which comprises an acetylated lysine residue is reacted with the nuclear extract (HeLa) containing the enzymatic activity in the presence and absence of inhibitors. In the second step a fluorogenic reagent is added which highlights the deacetylated residues. A reduction in fluorescence is obtained where there has been inhibition of the deacetylase activity. The result is finally expressed as percent inhibition relative to the control without inhibitor at a concentration of 0.1 μM.

Assay [2] concerns Human colon carcinoma cells HCT-116. As to the kind of experiment: Cytotoxic activity on culture of human colon carcinoma cells HCT-116 (Alamar Blue). In kind it is cell-based. To be noted: HCT-116 cells, 72 hours after addition of compounds, Alamar Blue viability. How it is done: as §1
24 hours after seeding, the compounds at different concentrations are added. […] 72 hours after addition of the compounds, cell viability is measured by means of the dye Alamar Blue.
Background: Resazurin is reduced to fluorescent resorufin, in cell work by metabolically active cells.

Turning to `CC(C)Oc1ccc(NC(=O)N2CCC(CCCC(=O)NO)CC2)cc1` [Ex 139, 4-(3-Hydroxycarbamoyl-propyl)-piperidine-1-carboxylic acid (4-isopropoxy-phenyl)-amide], the “% inhib. 0.1 μM” value in assay [1] was 56%. In assay [2] (Homo sapiens, HCT-116, 72 h), this molecule gave an IC50 of 400 nM.

For `N[C@@H](CC(=O)N1CCC(CCCC(=O)NO)CC1)Cc1ccc2ccccc2c1` [Ex 144, 4-[1-(3-(R)-Amino-4-naphthalen-2-yl-butyryl)-piperidin-4-yl]-N-hydroxy-butyramide], the “% inhib. 0.1 μM” value in assay [1] is 69%. In addition, in assay [2] (Homo sapiens, HCT-116, 72 h), the half-inhibitory concentration (IC50) was found to be 240 nM.

Consider `N[C@H](CC(=O)N1CCC(CCCC(=O)NO)CC1)Cc1csc2ccccc12` [Ex 146, 4-[1-(3-(S)-Amino-4-benzo[b]thiophen-3-yl-butyryl)-piperidin-4-yl]-N-hydroxy-butyramide], for which, in assay [1], the “% inhib. 0.1 μM” value stood at 68%. In addition, the IC50 in assay [2] (Homo sapiens, HCT-116, 72 h) worked out at 60 nM.

For the molecule `N[C@@H](CC(=O)N1CCC(CCCC(=O)NO)CC1)c1ccc2ccccc2c1` [Ex 149, 4-[1-(3-(S)-Amino-3-naphthalen-2-yl-propionyl)-piperidin-4-yl]-N-hydroxy-butyramide], in assay [1], the “% inhib. 0.1 μM” value was 62%. In assay [2], this molecule came in with an IC50 of 130 nM.

On to `O=C(CCCC1CCN(C(=O)Nc2cccc(-c3ccccc3)c2)CC1)NO` [Ex 150, 4-(3-Hydroxycarbamoyl-propyl)-piperidine-1-carboxylic acid biphenyl-3-ylamide], for which the “% inhib. 0.1 μM” value in assay [1] is 57%. This molecule gave an IC50 in assay [2] (Homo sapiens, HCT-116, 72 h) of 180 nM.

Consider `O=C(CCCC1CCN(C(=O)Nc2ccc(-c3ccccn3)cc2)CC1)NO` [Ex 151, 4-(3-Hydroxycarbamoyl-propyl)-piperidine-1-carboxylic acid (4-pyridin-2-yl-phenyl)-amide], for which the “% inhib. 0.1 μM” value in assay [1] came out at 50%. In addition, the IC50 in assay [2] (Homo sapiens, HCT-116, 72 h) was found to be 100 nM.

For the molecule `N[C@H](CC(=O)N1CCC(CCCC(=O)NO)CC1)Cc1cccc2ccccc12` [Ex 154, 4-[1-(3-(S)-Amino-4-naphthalen-1-yl-butyryl)-piperidin-4-yl]-N-hydroxy-butyramide], the “% inhib. 0.1 μM” value in assay [1] is recorded as 82%. The same molecule returned an IC50 in assay [2] (Homo sapiens, HCT-116, 72 h) of 530 nM.

For `O=C(CCCC1CCN(C(=O)NCc2csc3ccccc23)CC1)NO` [Ex 157, N-(benzo[b]thiophen-3-ylmethyl)-4-(4-(hydroxyamino)-4-oxobutyl)piperidine-1-carboxamide], the “% inhib. 0.1 μM” value in assay [1] turned out to be 68%. This molecule had an IC50 in assay [2] (Homo sapiens, HCT-116, 72 h) of 600 nM.

For the molecule `N[C@@H](CC(=O)N1CCC(CCCC(=O)NO)CC1)c1cccc2ccccc12` [Ex 158, 4-[1-(3-(S)-Amino-3-naphthalen-1-yl-propionyl)-piperidin-4-yl]-N-hydroxy-butyramide], the “% inhib. 0.1 μM” value in assay [1] is 60%. The half-maximal inhibitory concentration (IC50) in assay [2] (Homo sapiens, HCT-116, 72 h) worked out at 900 nM.

In the case of `N[C@H](CC(=O)N1CCC(CCCC(=O)NO)CC1)c1cccc2ccccc12` [Ex 159, 4-[1-(3-(R)-Amino-3-naphthalen-1-yl-propionyl)-piperidin-4-yl]-N-hydroxy-butyramide], the “% inhib. 0.1 μM” value in assay [1] came to 79%. This molecule also came in with an IC50 in assay [2] (Homo sapiens, HCT-116, 72 h) of 200 nM.

Regarding `COc1c(NC(=O)N2CCC(CCCC(=O)NO)CC2)ccc2ccccc12` [Ex 160], the “% inhib. 0.1 μM” value in assay [1] was 67%. Besides, in assay [2], inhibition was half-maximal at 200 nM (IC50).

On to `COc1cc2ccccc2cc1NC(=O)N1CCC(CCCC(=O)NO)CC1` [Ex 161], for which the “% inhib. 0.1 μM” value in assay [1] amounted to 76%. In assay [2], this molecule registered an IC50 of 30 nM.

As for `O=C(CCCC1CCN(C(=O)CCNCc2ccccc2)CC1)NO` [Ex 164, 4-[1-(3-Benzylamino-propionyl)-piperidin-4-yl]-N-hydroxy-butyramide], in assay [1], the “% inhib. 0.1 μM” value amounted to 51%. This molecule also yielded an IC50 in assay [2] (Homo sapiens, HCT-116, 72 h) of 600 nM.

In the case of `O=C(CCCC1CCN(C(=O)Nc2ccc(-c3cccc(F)c3)cc2)CC1)NO` [Ex 165, 4-(3-Hydroxycarbamoyl-propyl)-piperidine-1-carboxylic acid (3′-fluoro-biphenyl-4-yl)-amide], the “% inhib. 0.1 μM” value in assay [1] turned out to be 64%. Moreover, the IC50 in assay [2] (Homo sapiens, HCT-116, 72 h) was determined as 700 nM.

Regarding `N[C@@H](CC(=O)N1CCC(CCCC(=O)NO)CC1)c1cccc(Cl)c1` [Ex 168, 4-{1-[3-(S)-Amino-3-(3-chloro-phenyl)-propionyl]-piperidin-4-yl}-N-hydroxy-butyramide], the “% inhib. 0.1 μM” value in assay [1] is reported as 55%. It took 90 nM to reach half-maximal inhibition in assay [2] (IC50).

Turning to `O=C(CCCC1CCN(C(=O)NCCCc2c[nH]c3ccccc23)CC1)NO` [Ex 170, N-(3-(1H-indol-3-yl)propyl)-4-(4-(hydroxyamino)-4-oxobutyl)piperidine-1-carboxamide], the “% inhib. 0.1 μM” value in assay [1] came to 51%. Further, in assay [2] (Homo sapiens, HCT-116, 72 h), the 50% inhibitory concentration (IC50) came to 200 nM.

Turning to `N[C@@H](CC(=O)N1CCC(CCCC(=O)NO)CC1)c1cccc(Cl)c1` [Ex 171, 4-{1-[3-(S)-Amino-3-(3-chloro-phenyl)-propionyl]-piperidin-4-yl}-N-hydroxy-butyramide], in assay [1], the “% inhib. 0.1 μM” value is given as 45%. In addition, inhibition in assay [2] was half-maximal at 400 nM (IC50).

Consider `N[C@@H](CC(=O)N1CCC(CCCC(=O)NO)CC1)c1cccc(F)c1` [Ex 175, 4-{1-[3-(S)-Amino-3-(3-fluoro-phenyl)-propionyl]-piperidin-4-yl}-N-hydroxy-butyramide], for which the “% inhib. 0.1 μM” value in assay [1] is recorded as 70%. In addition, inhibition in assay [2] (Homo sapiens, HCT-116, 72 h) was half-maximal at 600 nM (IC50).

Consider `O=C(CCCC1CCN(C(=O)Nc2ccc(-c3csnn3)cc2)CC1)NO` [Ex 178, 4-(3-Hydroxycarbamoyl-propyl)-piperidine-1-carboxylic acid (4-[1,2,3]thiadiazol-4-yl-phenyl)-amide], for which the “% inhib. 0.1 μM” value in assay [1] is reported as 45%. In assay [2] (Homo sapiens, HCT-116, 72 h), the IC50 was found to be 300 nM.

Turning to `Cc1cc(C)n(-c2ccc(NC(=O)N3CCC(CCCC(=O)NO)CC3)cc2)n1` [Ex 179, 4-(3-Hydroxycarbamoyl-propyl)-piperidine-1-carboxylic acid [4-(3,5-dimethyl-pyrazol-1-yl)-phenyl]-amide], the “% inhib. 0.1 μM” value in assay [1] is reported as 70%. Besides, in assay [2] (Homo sapiens, HCT-116, 72 h), the IC50 was 500 nM.

Turning to `Nc1ccc2cc(NC(=O)N3CCC(CCCC(=O)NO)CC3)ccc2c1` [Ex 181, N-(6-aminonaphthalen-2-yl)-4-(4-(hydroxyamino)-4-oxobutyl)piperidine-1-carboxamide], in assay [1], the “% inhib. 0.1 μM” value is listed as 64%. The same molecule gave an IC50 in assay [2] (Homo sapiens, HCT-116, 72 h) of 470 nM.

As for `O=C(CCCC1CCN(C(=O)CCNc2cccc3ccccc23)CC1)NO` [Ex 186, 4-[1-(3-(1)Naphtylamino-propionyl)-piperidin-4-yl]-N-hydroxy-butyramide], in assay [1], the “% inhib. 0.1 μM” value is listed as 81%. Moreover, in assay [2], it took 360 nM to reach half-maximal inhibition (IC50).

Turning to `O=C(CCCC1CCN(C(=O)NCc2csc3ccc(Cl)cc23)CC1)NO` [Ex 188, N-(5-Chloro-benzo[b]thiophen-3-ylmethyl)-4-(4-(hydroxyamino)-4-oxobutyl)piperidine-1-carboxamide], the “% inhib. 0.1 μM” value in assay [1] is 50%. In assay [2] (Homo sapiens, HCT-116, 72 h), this molecule had an IC50 of 210 nM.

As for `O=C(CCCC1CCN(C(=O)NCc2ccc(-c3ccsc3)cc2)CC1)NO` [Ex 190, N-(4-(thiophen-3-yl)benzyl)-4-(4-(hydroxyamino)-4-oxobutyl)piperidine-1-carboxamide], in assay [1], the “% inhib. 0.1 μM” value is 69%. This molecule also came in with an IC50 in assay [2] (Homo sapiens, HCT-116, 72 h) of 480 nM.

As for `O=C(CCCC1CCCN(C(=O)Nc2ccccc2)C1)NO` (centres unmarked) [Ex 192, 3-(4-(hydroxyamino)-4-oxobutyl)-N-phenylpiperidine-1-carboxamide], the “% inhib. 0.1 μM” value in assay [1] turned out to be 68%. The same molecule gave a half-maximal inhibitory concentration (IC50) in assay [2] (Homo sapiens, HCT-116, 72 h) of 600 nM.

As to `N[C@@H](CC(=O)N1CCC(CCCC(=O)NO)CC1)C(=O)NCc1ccccc1` [Ex 193, 2-(s)-Amino-N-benzyl-4-[4-(3-hydroxycarbamoyl-propyl)-piperidin-1-yl]-4-oxo-butyramide], in assay [1], the “% inhib. 0.1 μM” value is 50%. Also, the IC50 in assay [2] (Homo sapiens, HCT-116, 72 h) is 900 nM.

`O=C(CCCC1CCN(C(=O)Nc2cc3ccccc3s2)CC1)NO` [Ex 195, N-(benzo[b]thiophene)-4-(4-(hydroxyamino)-4-oxobutyl)piperidine-1-carboxamide]: the “% inhib. 0.1 μM” value in assay [1] is 42%. Also, in assay [2], inhibition was half-maximal at 400 nM (IC50).

For the molecule `O=C(CCCC1CCN(C(=O)Nc2cccc3c2CCCC3)CC1)NO` [Ex 198, 4-(3-Hydroxycarbamoyl-propyl)-piperidine-1-carboxylic acid (5,6,7,8-tetrahydro-naphthalen-1-yl)-amide], the “% inhib. 0.1 μM” value in assay [1] is listed as 77%. The same molecule returned an IC50 in assay [2] (Homo sapiens, HCT-116, 72 h) of 400 nM.

As usually defined, the IC50 is the concentration that gives 50% inhibition. A low value points to higher potency.
